Test results published in patent US20130053243A1, “PLANTS HAVING INCREASED TOLERANCE TO HERBICIDES” (BASF SE, priority 2010, published 2013).

Molecular target: T1, Arabidopsis HPPD variant M335N (Arabidopsis thaliana, UniProt P93836, M335N)
T1 construct: His6 (N); made in house; host or cells: E. coli BL21 (DE3)
Test: HPPD activity assay, mutant enzyme
Type: biochemical

T1 sequence (P93836 whole entry M335N): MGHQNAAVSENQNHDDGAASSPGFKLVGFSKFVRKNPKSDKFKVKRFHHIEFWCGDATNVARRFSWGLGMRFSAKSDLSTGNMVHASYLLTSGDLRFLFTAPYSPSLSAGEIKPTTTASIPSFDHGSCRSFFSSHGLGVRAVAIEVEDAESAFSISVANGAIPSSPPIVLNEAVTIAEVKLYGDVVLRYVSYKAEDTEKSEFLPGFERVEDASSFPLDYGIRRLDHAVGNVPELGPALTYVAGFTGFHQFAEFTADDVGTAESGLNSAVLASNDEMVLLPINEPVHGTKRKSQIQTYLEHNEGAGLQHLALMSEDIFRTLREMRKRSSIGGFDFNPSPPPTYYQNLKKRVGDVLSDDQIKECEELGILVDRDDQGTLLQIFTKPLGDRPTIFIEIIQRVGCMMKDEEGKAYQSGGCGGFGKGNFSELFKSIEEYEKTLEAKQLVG

CC1=NOC(c2c(Cl)ccc(C3=C(O)c4ncccc4N(CC(F)F)S3(=O)=O)c2Cl)C1 (stereo not shown) [Inhibitor 1, 3-[2,4-dichloro-3-(3-methyl-4,5-dihydroisoxazol-5-yl)phenyl]-1-(2,2-difluoroethyl)-2,2-dioxo-pyrido[3,2-c]thiazin-4-ol]
Ki: 20 nM
